Experimental data published in ChEMBL document CHEMBL3885881, “DrugMatrix”.

Species: Rattus norvegicus
Assay type: toxicity, organism-based, Sprague-Dawley
Settings: in vivo, ip, route intraperitoneal, vehicle 100 % SALINE; for ABSOLUTE EOSINOPHIL / ABSOLUTE LYMPHOCYTE / ABSOLUTE MONOCYTE / ABSOLUTE SEGMENTED NEUTROPHIL / BASOPHIL / EOSINOPHIL / ERYTHROCYTE COUNT / HEMATOCRIT / HEMOGLOBIN / LEUKOCYTE COUNT / LYMPHOCYTE / MEAN CORPUSCULAR HEMOGLOBIN / MEAN CORPUSCULAR HEMOGLOBIN CONCENTRATION / MEAN CORPUSCULAR VOLUME / MONOCYTE / NEUTROPHIL / NUCLEATED RED BLOOD CELLS / PLATELET COUNT: tissue Blood; for ALANINE AMINOTRANSFERASE / ALBUMIN / ALKALINE PHOSPHATASE / ASPARTATE AMINOTRANSFERASE / BLOOD UREA NITROGEN / CARBON DIOXIDE / CHLORIDE / CHOLESTEROL / CREATINE PHOSPHOKINASE / CREATININE / GLUCOSE / LACTATE DEHYDROGENASE / LIPASE / PHOSPHORUS / POTASSIUM / SODIUM / TOTAL BILIRUBIN / TOTAL PROTEIN / URIC ACID: tissue Plasma
[1] = 16 mg/kg, 24 h, dose level Low, time 1 day
[2] = 25 mg/kg, 6 h, dose level M1, time 0.25 day
[3] = 25 mg/kg, 24 h, dose level M1, time 1 day

Description: DrugMatrix - Regimen: Single

C=CCO [ALLYL ALCOHOL]
ABSOLUTE EOSINOPHIL [1]: 29.33 CELLS/uL
ABSOLUTE LYMPHOCYTE [1]: 15204.83 CELLS/uL
ABSOLUTE MONOCYTE [1]: 174.67 CELLS/uL
ABSOLUTE SEGMENTED NEUTROPHIL [1]: 841.17 CELLS/uL
BASOPHIL [1]: 0%
EOSINOPHIL [1]: 0.17%
ERYTHROCYTE COUNT [1]: 5.13 x10E6/uL
HEMATOCRIT [1]: 33.13%
HEMOGLOBIN [1]: 12.85 G/DL
LEUKOCYTE COUNT [1]: 16.25 x10E3/uL
LYMPHOCYTE [1]: 93.83%
MEAN CORPUSCULAR HEMOGLOBIN [1]: 25.02 pg
MEAN CORPUSCULAR HEMOGLOBIN CONCENTRATION [1]: 38.82 G/DL
MEAN CORPUSCULAR VOLUME [1]: 64.5 fL
MONOCYTE [1]: 1%
NEUTROPHIL [1]: 5%
NUCLEATED RED BLOOD CELLS [1]: 0.33 /100WBC
PLATELET COUNT [1]: 1056.83 x10E3/uL
ALANINE AMINOTRANSFERASE [1]: 50.67 u/L
ALBUMIN [1]: 4.33 G/DL
ALKALINE PHOSPHATASE [1]: 273.5 u/L
ASPARTATE AMINOTRANSFERASE [1]: 75.83 u/L
BLOOD UREA NITROGEN [1]: 11.17 mg/dL
CARBON DIOXIDE [1]: 27.5 mmol/L
CHLORIDE [1]: 101.83 MEQ/L
CHOLESTEROL [1]: 67 mg/dL
CREATINE PHOSPHOKINASE [1]: 299.83 u/L
CREATININE [1]: 0.18 mg/dL
GLUCOSE [1]: 166.33 mg/dL
LACTATE DEHYDROGENASE [1]: 243.17 u/L
LIPASE [1]: 9.67 u/L
PHOSPHORUS [1]: 10.5 mg/dL
POTASSIUM [1]: 5.58 MEQ/L
SODIUM [1]: 147.05 MEQ/L
TOTAL BILIRUBIN [1]: 0.15 mg/dL
TOTAL PROTEIN [1]: 5.87 G/DL
URIC ACID [1]: 1.25 mg/dL
ABSOLUTE EOSINOPHIL [2]: 0 CELLS/uL
ABSOLUTE LYMPHOCYTE [2]: 12514.83 CELLS/uL
ABSOLUTE MONOCYTE [2]: 196.67 CELLS/uL
ABSOLUTE SEGMENTED NEUTROPHIL [2]: 2271.83 CELLS/uL
BASOPHIL [2]: 0%
EOSINOPHIL [2]: 0%
ERYTHROCYTE COUNT [2]: 5.42 x10E6/uL
HEMATOCRIT [2]: 35.1%
HEMOGLOBIN [2]: 13.58 G/DL
LEUKOCYTE COUNT [2]: 14.98 x10E3/uL
LYMPHOCYTE [2]: 83.83%
MEAN CORPUSCULAR HEMOGLOBIN [2]: 25.07 pg
MEAN CORPUSCULAR HEMOGLOBIN CONCENTRATION [2]: 38.7 G/DL
MEAN CORPUSCULAR VOLUME [2]: 64.73 fL
MONOCYTE [2]: 1.33%
NEUTROPHIL [2]: 14.83%
NUCLEATED RED BLOOD CELLS [2]: 0 /100WBC
PLATELET COUNT [2]: 1079 x10E3/uL
ALANINE AMINOTRANSFERASE [2]: 87.5 u/L
ALBUMIN [2]: 4.43 G/DL
ALKALINE PHOSPHATASE [2]: 238.5 u/L
ASPARTATE AMINOTRANSFERASE [2]: 133.17 u/L
BLOOD UREA NITROGEN [2]: 10.33 mg/dL
CARBON DIOXIDE [2]: 27.67 mmol/L
CHLORIDE [2]: 101.5 MEQ/L
CHOLESTEROL [2]: 58.83 mg/dL
CREATINE PHOSPHOKINASE [2]: 180 u/L
CREATININE [2]: 0.12 mg/dL
GLUCOSE [2]: 158.17 mg/dL
LACTATE DEHYDROGENASE [2]: 175.17 u/L
LIPASE [2]: 10.67 u/L
PHOSPHORUS [2]: 11.65 mg/dL
POTASSIUM [2]: 5.53 MEQ/L
SODIUM [2]: 144.52 MEQ/L
TOTAL BILIRUBIN [2]: 0.12 mg/dL
TOTAL PROTEIN [2]: 5.95 G/DL
URIC ACID [2]: 1.33 mg/dL
ABSOLUTE EOSINOPHIL [3]: 41.33 CELLS/uL
ABSOLUTE LYMPHOCYTE [3]: 12363.17 CELLS/uL
ABSOLUTE MONOCYTE [3]: 291.83 CELLS/uL
ABSOLUTE SEGMENTED NEUTROPHIL [3]: 987 CELLS/uL
BASOPHIL [3]: 0%
EOSINOPHIL [3]: 0.33%
ERYTHROCYTE COUNT [3]: 5.25 x10E6/uL
HEMATOCRIT [3]: 35.35%
HEMOGLOBIN [3]: 13.55 G/DL
LEUKOCYTE COUNT [3]: 13.68 x10E3/uL
LYMPHOCYTE [3]: 90.33%
MEAN CORPUSCULAR HEMOGLOBIN [3]: 25.85 pg
MEAN CORPUSCULAR HEMOGLOBIN CONCENTRATION [3]: 38.38 G/DL
MEAN CORPUSCULAR VOLUME [3]: 67.32 fL
MONOCYTE [3]: 2.17%
NEUTROPHIL [3]: 7.17%
NUCLEATED RED BLOOD CELLS [3]: 0.33 /100WBC
PLATELET COUNT [3]: 960.33 x10E3/uL
ALANINE AMINOTRANSFERASE [3]: 143 u/L
ALBUMIN [3]: 4.27 G/DL
ALKALINE PHOSPHATASE [3]: 289.67 u/L
ASPARTATE AMINOTRANSFERASE [3]: 211.17 u/L
BLOOD UREA NITROGEN [3]: 12.5 mg/dL
CARBON DIOXIDE [3]: 28.33 mmol/L
CHLORIDE [3]: 100.67 MEQ/L
CHOLESTEROL [3]: 75.17 mg/dL
CREATINE PHOSPHOKINASE [3]: 317.5 u/L
CREATININE [3]: 0.22 mg/dL
GLUCOSE [3]: 148.33 mg/dL
LACTATE DEHYDROGENASE [3]: 194.67 u/L
LIPASE [3]: 9.33 u/L
PHOSPHORUS [3]: 11.4 mg/dL
POTASSIUM [3]: 6.21 MEQ/L
SODIUM [3]: 147.37 MEQ/L
TOTAL BILIRUBIN [3]: 0.17 mg/dL
TOTAL PROTEIN [3]: 5.9 G/DL
URIC ACID [3]: 1.15 mg/dL
